Experimental data taken from US9771370B2, “Compounds for the inhibition of indoleamine-2,3-dioxygenase” (Merck Patent GmbH, priority 2014, dated 2017).
Several values for one entry are separate records, joined by “and”; a condition that tells them apart may be missing. Equal entries are not always repeated.

Target: Recombinant human IDO (Homo sapiens, UniProt P14902)
Assay: Bridge-IT tryptophan fluorescence assay of human IDO-1 inhibition
Type: biochemical
Settings: recombinant human IDO 7.5 nM, L-tryptophan
Method in brief: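 One variant ran L-Trp at 100 μM for 90 min at 37 °C. The other pre-incubated compound for 30 min at 25 °C, then ran 50 μM L-Trp for 60 min at 25 °C.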

Recombinant human IDO, sequence (P14902 whole entry): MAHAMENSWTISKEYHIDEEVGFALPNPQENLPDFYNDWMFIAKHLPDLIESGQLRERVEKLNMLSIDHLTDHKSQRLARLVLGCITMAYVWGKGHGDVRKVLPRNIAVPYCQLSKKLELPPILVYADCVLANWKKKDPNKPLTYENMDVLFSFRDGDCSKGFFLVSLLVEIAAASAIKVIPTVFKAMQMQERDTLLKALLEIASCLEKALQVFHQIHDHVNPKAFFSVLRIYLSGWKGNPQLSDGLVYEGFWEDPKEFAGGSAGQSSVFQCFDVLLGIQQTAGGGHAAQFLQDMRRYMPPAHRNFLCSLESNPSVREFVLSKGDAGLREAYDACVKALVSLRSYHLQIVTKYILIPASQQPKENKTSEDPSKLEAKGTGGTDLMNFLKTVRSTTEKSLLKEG

Structure (SMILES) | IC50
OC(CC1c2nc(C3CC3)ccc2-c2cncn21)C1CCC(F)(F)CC1 (stereo not drawn) [Compound 57a, 2-[10-cyclopropyl-4,6,9-triazatricyclo[6.4.0.0^[2,6]]dodeca-1(8),2,4,9,11-pentaen-7-yl]-1-(4,4-difluorocyclohexyl)ethan-1-ol] | > 1000 nM
NC(=O)C1CCC(C(O)CC2c3ncccc3-c3cncn32)CC1 (stereo not drawn) [Compound 63a, 4-[1-hydroxy-2-[4,6,9-triazatricyclo[6.4.0.0^[2,6]]dodeca-1(8),2,4,9,11-pentaen-7-yl]ethyl]cyclohexane-1-carboxamide] | > 1000 nM
OC(CC1c2ncncc2-c2cncn21)C1CCCCC1 (stereo not drawn) [Compound 67a, 1-cyclohexyl-2-[4,6,9,11-tetraazatricyclo[6.4.0.0^[2,6]]dodeca-1(8),2,4,9,11-pentaen-7-yl]ethan-1-ol] | > 1000 nM and 100 to 1000 nM
OCC1CCC(C(O)CC2c3ncccc3-c3cncn32)CC1 (stereo not drawn) [Compound 73a, 1-[4-(hydroxymethyl)cyclohexyl]-2-[4,6,9-triazatricyclo[6.4.0.0^[2,6]]dodeca-1(8),2,4,9,11-pentaen-7-yl]ethan-1-ol] | > 1000 nM
OC1CCC(F)(CCC2c3nccc(F)c3-c3cncn32)CC1 (stereo not drawn) [Compound 103b, 4-fluoro-4-(2-[12-fluoro-4,6,9-triazatricyclo[6.4.0.0^[2,6]]dodeca-1(8),2,4,9,11-pentaen-7-yl]ethyl)cyclohexan-1-ol] | > 1000 nM
OC(CC1c2ncccc2-c2cncn21)C1(F)CCCCC1 (stereo not drawn) [Compound 109b, 1-(1-fluorocyclohexyl)-2-[4,6,9-triazatricyclo[6.4.0.0^[2,6]]dodeca-1(8),2,4,9,11-pentaen-7-yl]ethan-1-ol] | 100 to 1000 nM
CN(C)C(=O)C1CCC(F)(CCC2c3c(F)cccc3-c3cncn32)CC1 (stereo not drawn) [Compound 111b, 4-fluoro-4-(2-[6-fluoro-5H-imidazo[4,3-a]isoindol-5-yl]ethyl)-N,N-dimethylcyclohexane-1-carboxamide] | 100 to 1000 nM

Continued, values first:

IC50 | Structure (SMILES)
100 to 1000 nM | COc1ccc2c(n1)C(CC(O)C1CCC3(CC1)CC3)n1cncc1-2 (stereo not drawn) [Compound 53a, 2-[10-methoxy-4,6,9-triazatricyclo[6.4.0.0^[2,6]]dodeca-1(8),2,4,9,11-pentaen-7-yl]-1-[spiro[2.5]octan-6-yl]ethan-1-ol]
< 100 nM | OC(CC1c2nc(C3CC3)ccc2-c2cncn21)C1CCCCC1 (stereo not drawn) [Compound 56a, 1-cyclohexyl-2-[10-cyclopropyl-4,6,9-triazatricyclo[6.4.0.0^[2,6]]dodeca-1(8),2,4,9,11-pentaen-7-yl]ethan-1-ol]
< 100 nM | OC1CCC(C(F)(F)CC2c3c(F)cccc3-c3cncn32)CC1 (stereo not drawn) [Compound 75a, 4-(1,1-difluoro-2-[6-fluoro-5H-imidazo[4,3-a]isoindol-5-yl]ethyl)cyclohexan-1-ol]
100 to 1000 nM | OC1(C2CCC(F)(CCC3c4c(F)cccc4-c4cncn43)CC2)CC1 (stereo not drawn) [Compound 85b, 1-[4-fluoro-4-(2-[6-fluoro-5H-imidazo[4,3-a]isoindol-5-yl]ethyl)cyclohexyl]cyclopropan-1-ol]
100 to 1000 nM | CC(C)(O)C1CCC(F)(CCC2c3c(F)cccc3-c3cncn32)CC1 (stereo not drawn) [Compound 86a, 2-[4-fluoro-4-(2-[6-fluoro-5H-imidazo[4,3-a]isoindol-5-yl]ethyl)cyclohexyl]propan-2-ol]
100 to 1000 nM | OC1(C2CCC(F)(CCC3c4c(Cl)cccc4-c4cncn43)CC2)CC1 (stereo not drawn) [Compound 106b, 1-[4-(2-[6-chloro-5H-imidazo[4,3-a]isoindol-5-yl]ethyl)-4-fluorocyclohexyl]cyclopropan-1-ol]
100 to 1000 nM | CC(C)(O)C1CCC(F)(CCC2c3c(Cl)cccc3-c3cncn32)CC1 (stereo not drawn) [Compound 107b, 2-[4-(2-[6-chloro-5H-imidazo[4,3-a]isoindol-5-yl]ethyl)-4-fluorocyclohexyl]propan-2-ol]
< 100 nM | O=C(C1CCC(F)(CCC2c3c(F)cccc3-c3cncn32)CC1)N1CCCCC1 (stereo not drawn) [Compound 110a]
